Test system: inflammatory cell infiltration in the synovium
Test: Histopathological assessment of ankle joint synovium (H&E) in MSU crystal-injected rats
Format: in vivo, Wistar rats
Experimental: In one study, a histopathological assessment was conducted of synovium in ankle joints of rats after H&E staining. The right ankles of […] were excised and fixed in 4% paraformaldehyde, and subsequently decalcified using 10% ethylenediaminetetraacetic acid. They were then dehydrated via processing in alcohol/xylene mixtures with different proportions and concentrations. The histological sections were stained with hematoxylin and eosin. The histopathological changes of the joint synovium were assessed for the degree of inflammatory cell infiltrate, by an experienced histopathologist. Microscopy at magnifications of 40×, 100×, 200× and 400× were investigated for typical areas for each of the five groups.
The right ankles of rats were collected and fixed in 4% paraformaldehyde, and subsequently decalcified using 10% ethylenediaminetetraacetic acid. They were then dehydrated by processing in alcohol/xylene mixtures with different proportions and concentrations. The histological sections were later stained with hematoxylin and eosin for observation under an optical microscope (200×). The histopathological changes were analyzed with regard to deformaties of the joint synovium and infiltration by inflammatory cells into the ankle.

N-butyrylated HA [BHA] was tested, and the “pathological changes (inflammatory cell infiltration) in synovium” value (10 μg of BHA, MSU crystal-injected rats, H&E) was “partially prevented the pathological changes” and the “attenuation of inflammatory cell infiltration in synovium” value (higher dose BHA (50BHA, 50 μg)) was “not as effective as the 10BHA dose”.
